# Where two headings read alike, the source gives them in different places. Marks after values point to notes of the source that are not given here.
Compound,Log P (pH 7.5),Log P (pH 2.3),Log P (pH 2.7)
COC(=O)C(C#N)=C(NC(C)c1nc2ccccc2s1)c1cccnc1Cl (stereo not shown) [Compound 15],2.95,–,–
COC(=O)C(C#N)=C(NCC1CCCO1)c1cccnc1Cl (stereo not shown) [Compound 16],2.03,–,–
COC(=O)C(C#N)=C(NC(C)c1nccs1)c1sc(C)nc1C(F)(F)F (stereo not shown) [Compound 17],2.63,2.66,2.78
COC(=O)C(C#N)=C(NC(C)c1nccs1)c1sccc1Cl (stereo not shown) [Compound 18],2.59,2.61,–
COC(=O)C(C#N)=C(NC(C)c1nc(C)c(C)s1)c1cccnc1Cl (stereo not shown) [Compound 19],2.69,–,–
COC(=O)C(C#N)=C(NCC1CCCS1)c1cccnc1Cl (stereo not shown) [Compound 20],2.47,2.63,–
COC(=O)C(C#N)=C(NC(C)c1nccs1)c1cccnc1Br (stereo not shown) [Compound 21],2.12,–,–
COC(=O)C(C#N)=C(NC1CCSC1)c1cccnc1Cl (stereo not shown) [Compound 22],2.23,2.4,–
CC(C)OC(=O)C(C#N)=C(NC(C)c1nccs1)c1cccnc1Cl (stereo not shown) [Compound 23],2.7,–,–
CCOC(=O)C(C#N)=C(NC(C)c1nccs1)c1ccc(C)nc1Cl (stereo not shown) [Compound 24],2.62,–,–
CC(NC(=C(C#N)C(=O)OC(C)(C)C)c1cccnc1Cl)c1nccs1 (stereo not shown) [Compound 25],3.07,–,–
COC(=O)C(C#N)=C(NC(C)c1sc(C)nc1C)c1cccnc1Cl (stereo not shown) [Compound 26],2.17,–,–
CC(C)COC(=O)C(C#N)=C(NC(C)c1nccs1)c1cccnc1Cl (stereo not shown) [Compound 28],3.13,–,–
CC(C)OC(=O)C(C#N)=C(NC(C)c1nc2ccccc2s1)c1cccnc1Cl (stereo not shown) [Compound 29],3.63,–,–
CC(NC(=C(C#N)C(=O)OCC(F)(F)F)c1cccnc1Cl)c1nccs1 (stereo not shown) [Compound 30],2.67,–,–
CCOC(=O)C(C#N)=C(NCc1ccccn1)c1cn(C)nc1C(F)F [Compound 32],–,–,1.94^[a]
CCOC(=O)C(C#N)=C(NCc1ccccn1)c1c(C)nn(C)c1F [Compound 39],–,–,1.91^[a]
CCOC(=O)C(C#N)=C(NCc1ccccn1)c1ncc(C(F)(F)F)cc1Cl [Compound 42],–,–,2.98^[a]
COC(=O)C(C#N)=C(NCc1ccccn1)c1cn(C)nc1C(F)F [Compound 58],–,–,1.63^[a]
CCOC(=O)C(C#N)=C(NC(C)c1nc(C)c(C)s1)c1cn(C)nc1C(F)(F)F (stereo not shown) [Compound 64],–,–,3.48^[a]
CCOC(=O)C(C#N)=C(NC(C)Cc1c[nH]c2ccccc12)c1cn(C)nc1C(F)(F)F (stereo not shown) [Compound 65],–,–,3.73^[a]

Compound,Log P (pH 7.5),Log P (pH 2.3),Log P (pH 2.7)
CCOC(=O)C(C#N)=C(NCc1nccs1)c1cccnc1Cl [Compound 66],–,–,2.07^[a]
COC(=O)C(C#N)=C(NCc1nccs1)c1cn(C)nc1C(F)F [Compound 67],–,–,1.72^[a]
CCOC(=O)C(C#N)=C(NCc1nccs1)c1cn(C)nc1C(F)F [Compound 68],–,–,2^[a]
CCOC(=O)C(C#N)=C(NC(c1cc2ccccc2s1)C(F)(F)F)c1nsc(Cl)c1Cl (stereo not shown) [Compound 69],–,–,5.11^[a]
CCOC(=O)C(C#N)=C(NCc1ccccn1)c1nsc(Cl)c1Cl [Compound 70],–,–,2.84^[a]
CCOC(=O)C(C#N)=C(NC(C)c1ccccn1)c1nsc(Cl)c1Cl (stereo not shown) [Compound 71],–,–,3.35^[a]
CCOC(=O)C(C#N)=C(NC(C)c1nccs1)c1ccc(Cl)nc1Cl (stereo not shown) [Compound 72],3.01,–,–
CCOC(=O)C(C#N)=C(NC(c1cc2ccccc2s1)C(F)(F)F)c1ncc(C(F)(F)F)cc1Cl (stereo not shown) [Compound 73],–,–,4.94^[a]
CCOC(=O)C(C#N)=C(NC(C)c1nc(C)c(C)s1)c1conc1C (stereo not shown) [Compound 74],–,–,3.02^[a]
CCOC(=O)C(C#N)=C(NCc1nccs1)c1ncc(C(F)(F)F)cc1Cl [Compound 75],–,–,2.84^[a]
CCOC(=O)C(C#N)=C(NCc1nccs1)c1conc1C [Compound 76],–,–,2.04^[a]
CCOC(=O)C(C#N)=C(NC(C)c1nccs1)c1conc1C (stereo not shown) [Compound 77],–,–,2.4^[a]
CCOC(=O)C(C#N)=C(NC(C)Cc1c[nH]c2ccccc12)c1conc1C (stereo not shown) [Compound 78],–,–,3.15^[a]
CCOC(=O)C(C#N)=C(NC(C)c1nccs1)c1cccnc1F (stereo not shown) [Compound 79],2.32,2.47,–
CCOC(=O)C(C#N)=C(NCc1nccs1)c1c(C)nn(C)c1F [Compound 80],–,–,2.01^[a]
CCOC(=O)C(C#N)=C(NCc1ccccn1)c1conc1C [Compound 81],–,–,1.96^[a]
CCOC(=O)C(C#N)=C(NC(C)c1ccccn1)c1conc1C (stereo not shown) [Compound 82],–,–,2.36^[a]
COC(=O)C(C#N)=C(NCc1nccs1)c1ncc(C(F)(F)F)cc1Cl [Compound 83],–,–,2.63^[a]
CCOC(=O)C(C#N)=C(NC(C)Cn1cncn1)c1cccnc1Cl (stereo not shown) [Compound 84],1.59,–,–
CCOC(=O)C(C#N)=C(NC(C)c1nccs1)c1sccc1Br (stereo not shown) [Compound 85],–,–,3.13^[a]
CCOC(=O)C(C#N)=C(NCc1nccs1)c1c(C)nn(C)c1Cl [Compound 86],–,–,2.13^[a]

Compound,Log P (pH 7.5),Log P (pH 2.3),Log P (pH 2.7)
CCOC(=O)C(C#N)=C(NCc1ccccn1)c1c(C)nn(C)c1Cl [Compound 87],–,–,2.02^[a]
CCOC(=O)C(C#N)=C(NCc1nccs1)c1sccc1Br [Compound 88],–,–,2.67^[a]
C=CCOC(=O)C(C#N)=C(NC(C)c1nccs1)c1cccnc1Cl (stereo not shown) [Compound 89],2.56,–,–
CCOC(=O)C(C#N)=C(NC(C)Cc1c[nH]c2ccccc12)c1sccc1Br (stereo not shown) [Compound 91],–,–,3.8^[a]
CCOC(=O)C(C#N)=C(NC(C)c1nc(C)c(C)s1)c1sccc1Br (stereo not shown) [Compound 92],–,–,3.8^[a]
CCOC(=O)C(C#N)=C(NC(c1cc2ccccc2s1)C(F)(F)F)c1conc1C (stereo not shown) [Compound 93],–,–,4.24^[a]
CCOC(=O)C(C#N)=C(NC(C)c1nc(C)c(C)s1)c1c(C)nn(C)c1Cl (stereo not shown) [Compound 94],–,–,3.12^[a]
CCOC(=O)C(C#N)=C(NCc1nccs1)c1sccc1C(F)(F)F [Compound 95],–,–,2.82^[a]
CCOC(=O)C(C#N)=C(NC(C)c1nccs1)c1sccc1C(F)(F)F (stereo not shown) [Compound 96],–,–,3.31^[a]
CCOC(=O)C(C#N)=C(NC(C)c1nc(C)c(C)s1)c1sccc1C(F)(F)F (stereo not shown) [Compound 97],–,–,3.92^[a]
CCOC(=O)C(C#N)=C(NC(C)c1nccs1)c1c(C)nn(C)c1Cl (stereo not shown) [Compound 98],–,–,2.52^[a]
CCOC(=O)C(C#N)=C(NCc1ccccn1)c1sccc1Br [Compound 99],–,–,2.61^[a]
CCOC(=O)C(C#N)=C(NC(C)c1ccccn1)c1sccc1Br (stereo not shown) [Compound 100],–,–,3.1^[a]
CCOC(=O)C(C#N)=C(NCc1ccccn1)c1sccc1C(F)(F)F [Compound 102],–,–,2.84^[a]
CCOC(=O)C(C#N)=C(NC(C)c1ccccn1)c1sccc1C(F)(F)F (stereo not shown) [Compound 103],–,–,3.27^[a]
CCOC(=O)C(C#N)=C(NCc1nccs1)c1ccsc1Br [Compound 104],–,–,2.66^[a]
CCOC(=O)C(C#N)=C(NC(C)c1nccs1)c1ccsc1Br (stereo not shown) [Compound 105],–,–,3.1^[a]
CCOC(=O)C(C#N)=C(NC(C)Cc1c[nH]c2ccccc12)c1ccsc1Br (stereo not shown) [Compound 106],–,–,3.8^[a]
CCOC(=O)C(C#N)=C(NC(c1cc2ccccc2s1)C(F)(F)F)c1sccc1C(F)(F)F (stereo not shown) [Compound 107],–,–,4.89^[a]
